The term kcat denotes the number of substrate molecules converted per active site and unit of time at saturation. The Km is the substrate concentration at which the rate is half of its maximum.

In assay [1] the target is T1, PSA (Homo sapiens, UniProt P07288).
T1 construct: from tissue; host or cells: pooled human seminal fluid
In words: Enzyme kinetics of PSA with fluorogenic peptide substrate. The format is biochemical. On the procedure: (§1) The major form of active PSA (isoform PSA-B) was purified from pooled human seminal fluid by immunoaffinity chromatography followed by anion exchange chromatography. Semenogelins I and II were isolated from human seminal fluid as previously described, but instead of alkylating the proteins, the reducing agent 30 mM dithiothreitol (Sigma-Aldrich, St. Louis, MO) was included in all buffers during purification. Semenogelins were stored in the purification buffer containing 2 M urea and 5 mM EDTA at −70°C. Prior to cleavage by PSA, the buffer was exchanged to 50 mM Tris, pH 7.7, containing 0.15 M NaCl (TBS), with Amicon Ultra centrifugal filter units (MW cut-off 30 kDa) (Millipore, Cork, Ireland) at 4°C, and protein concentration was determined by measuring absorbance at 280 nm.
(§2) The proteolytic activity of PSA towards small peptide substrates was compared with two different substrates. Both assays were performed in 96-well microplates (PerkinElmer, Turku, Finland) with duplicates in two separate experiments (n = 2) in TBS buffer containing 1 g/l bovine serum albumin (0.1% BSA-TBS). The chromogenic chymotrypsin substrate S-2586 (MeO-Suc-Arg-Pro-Tyr-pNA·HCl) (Chromogenix Instrumentation Laboratory, Milan, Italy) at 0.125–5 mM concentration or 0.125–2 mM fluorogenic PSA substrate 4-morpholinecarbonyl-HSSKLQ-AMC (7-amido-4-methylcoumarin) (custom peptide from JPT Peptide Technologies GmbH, Berlin, Germany) were added to the wells together with 175 nM (5 µg/ml) PSA. The absorbance was measured at 405 nm immediately and at 5 min intervals for 30 min and fluorescence at 355/460 nm (excitation/emission) after 10 min, 20 min, 40 min, 1 h, 2 h and 4 h incubation at room temperature with a Victor 1420 Multilabel plate reader (PerkinElmer). In the fluorogenic assays all wells contained 5% dimethyl sulfoxide (DMSO).
The maximum velocity of the reaction (Vmax) and the Michaelis constant (Km), i.e., substrate concentration at which the reaction rate is half of the maximum, were evaluated for PSA with both peptide substrates using Sigma Plot 11 with the Enzyme Kinetics Module 1.3 (SYSTAT Software, Inc., San Jose, CA) and the catalytic constant (kcat), i.e., the number of substrate molecules converted to product per time unit, was calculated from the equation kcat = Vmax/[PSA]. The absorbance was converted to molar concentration with the Lambert-Beer equation (A = εcl), using the molar absorptivity of pNA (εpNA = 8800 M^−1cm^−1). Fluorescence (counts per second, cps) was transformed to molar concentrations with SigmaPlot by means of a standard curve for 7-amido-4-methylcoumarin (AMC, Sigma-Aldrich).

In assay [2] the target is T1, PSA. In words: Stimulation of PSA activity by peptides, chromogenic substrate. Particulars: for Emax / EC50: 350 nM PSA preincubated with 0.35–350 µM peptide 30 min room temperature, 0.2 mM chromogenic substrate S-2586, mean ± SD, n = 2; for Emax: read-out: Stimulation (maximal stimulation capacity as compared to PSA alone, Vmax (peptide+PSA)/V(PSA)); for EC50: read-out: [peptide]½Vmax (peptide concentration with half-maximal stimulation). The format is biochemical. On the procedure: as §1
(§3) Peptides that bind to PSA and stimulate its activity have previously been identified by phage display. […] The purity of the peptides as determined by HPLC was over 95% in all batches. We have not observed any significant variation in the capacity of the peptides to stimulate the PSA activity between different peptide batches and suppliers.
as §2
(§4) The effect of the PSA-stimulating peptides on the activity of PSA was characterized with chromogenic and fluorogenic substrates in two (n = 2) and three (n = 3) separate experiments, respectively. PSA (350 nM) was first preincubated with peptides (0.35–350 µM) for 30 min at room temperature. Then 0.2 mM chromogenic or 0.3 mM fluorogenic substrate was added and absorbance or fluorescence was measured as described above. Fluorogenic assays with the peptides were performed in black 384-well microplates (Corning Inc., Corning, NY) and all wells contained 0.75% DMSO. The velocity of the reaction (V) was calculated from the change of absorbance/min or fluorescence/min at the linear phase of the reaction and converted to molar concentration as described above. Vmax (peptide + PSA), i.e., the maximal velocity of the reaction with increasing peptide concentrations and given PSA and substrate concentrations, was determined using SigmaPlot, fitting the data to f = y0+a*(1−exp(−b*x)) using non-linear regression. The maximal stimulatory capacity of the peptide, Vmax (peptide+PSA)/V(PSA), was calculated. The peptide concentrations at which the stimulation of PSA was half of the maximum ([peptide]½Vmax) and at which PSA activity was increased two-fold when compared to PSA alone ([peptide]2V) were also determined.

Assay [3] has as its target T1, PSA. In words: Stimulation of PSA activity by peptides, fluorogenic substrate. Particulars: 350 nM PSA preincubated with 0.35–350 µM peptide 30 min room temperature, 0.3 mM fluorogenic substrate, 0.75% DMSO, mean ± SD, n = 3; for Emax: read-out: Stimulation (maximal stimulation capacity as compared to PSA alone, Vmax (peptide+PSA)/V(PSA)); for EC50: read-out: [peptide]½Vmax (peptide concentration with half-maximal stimulation). The format is biochemical. The method, then: as §1, §3
The proteolytic activity of PSA towards small peptide substrates was compared with two different substrates. Both assays were performed in 96-well microplates (PerkinElmer, Turku, Finland) with duplicates in two separate experiments (n = 2) in TBS buffer containing 1 g/l bovine serum albumin (0.1% BSA-TBS). […] The absorbance was measured at 405 nm immediately and at 5 min intervals for 30 min and fluorescence at 355/460 nm (excitation/emission) after 10 min, 20 min, 40 min, 1 h, 2 h and 4 h incubation at room temperature with a Victor 1420 Multilabel plate reader (PerkinElmer). […]
as §4, with “PSA (350 nM) was first preincubated with peptides (0.35–350 µM) for 30 min at room temperature.” left out, “Fluorogenic assays with the peptides were performed in black 384-well microplates (Corning Inc., Corning, NY) and all wells contained 0.75% DMSO.” left out

Assay [4] addresses T1, PSA. In words: Surface plasmon resonance binding of peptides to PSA. Particulars: SPR, peptide 1.2–600 µM, PBS pH 7.4, 25°C. On the technique in general: SPR reads the build-up and loss of mass on a sensor chip optically.
Protocol: The binding kinetics and affinity of the peptides stimulating the activity of PSA were studied by surface plasmon resonance (SPR) on a Biacore T100 instrument using Biacore T100 Control Software 2.0.3 (both from GE Healthcare, Uppsala, Sweden). PSA (20 µg/ml, 0.7 µM) and α-chymotrypsin (20 µg/ml, 0.8 µM) were covalently immobilized on the Series S Sensor Chip CM5 (GE Healthcare) by using amine coupling in 10 mM sodium acetate buffer, pH 5.0. The immobilization levels varied in different experiments between 2000–3900 resonance units (RU) for PSA and 1400–2500 RU for chymotrypsin. Chymotrypsin was used as a reference for PSA, i.e., the binding of peptides to the chymotrypsin surface was subtracted as a non-specific interaction from the binding of peptides to the PSA surface in all measurements.
Binding to PSA was studied at various peptide concentrations (1.2–600 µM) in phosphate buffered saline (PBS), pH 7.4 (Lonza, Verviers, Belgium), containing 6.7 mM PO4 and 0.15 M NaCl, with a flow rate of 40 µl/min at 25°C. Contact time of the peptides with PSA was 60 s and dissociation time 180 s. In all other steps except the peptide binding the running buffer was supplemented with 0.005% surfactant P20 (GE Healthcare). The chip was washed after each measurement cycle with the running buffer, which removed all peptides. The binding data were analyzed using Biacore T100 Evaluation software 2.0.3. […]
Assay [5] deals with T1, PSA. Kind of assay: Proteolytic cleavage of protein substrates by PSA (SDS-PAGE, silver staining). The format is biochemical. Particulars: 0.2 µM PSA, 1 µM substrate, TBS, 37°C; disappearance of full-length band. On the procedure: as §1
(§5) Protein LoBind tubes (Eppendorf AG, Hamburg, Germany) were used in all protein degradation experiments.
(§6) PSA (0.2–1 µM) and 0.5–1 µM of each protein substrate were incubated at 37°C for 22 h in TBS buffer. During the incubation, samples of 15 µl were taken at different time points: 0 min, 10 min, 30 min, 2 h, 5 h and 22 h, and stored at −20°C before further analysis.
Immediately after each incubation, reducing 4× SDS-loading buffer (8% SDS), containing 1 M β-mercaptoethanol or 75 mM dithiothreitol, was added to each sample and proteins were denatured at 70°C for 10 min. The samples were immediately analyzed by SDS-PAGE or frozen at −20°C. Frozen samples were heated again at 70°C before loading on the gel. The cleavage of protein substrates by PSA, i.e., the disappearance of the full-length protein bands, was quantified from scanned images of silver stained gels by the measurement of relative optical densities of the protein bands using ImageJ [40]. […]
Proteins were visualized either by silver staining or Western blotting. […] After 30 min incubation in 0.2% AgNO3, the gel was rinsed briefly with water and proteins were detected with development solution, containing 700 µl/l of 37% formaldehyde, 0.001% sodium thiosulfate and 3% anhydrous Na2CO3. […]

Assay [6] concerns IGFBP-3. In words: Immunofluorometric assay of intact IGFBP-3 after incubation with PSA and peptides. Format: biochemical, human. Particulars: 0.2 µM PSA, 2.2 µM IGFBP-3, 37°C, TBS; 22 h in text (24 h in method), n = 2. The method, then: To study the degradation of IGFBP-3 by PSA, we used a sandwich-type immunofluorometric assay (IFMA) that measures only intact IGFBP-3, but not that cleaved by PSA [43], [44]. […] After incubation, the samples were diluted 1∶1000 in IFMA assay buffer and IGFBP-3 concentrations were measured as previously described,[44].

Assay [7] concerns HUVECs. In words: HUVEC tube formation assay on Matrigel. Format: cell-based, human. On the procedure: Human umbilical vein endothelial cells (HUVECs) were isolated from umbilical cord veins and grown in Endothelial Cell Growth Medium (Promocell, Heidelberg, Germany) with 2% Ultroser G BioSepra serum substitute (PALL BioSepra, Cergy, France) and growth factors EGF and bFGF. For tube formation, HUVECs were grown on top of Matrigel (BD Biosciences) as described previously, [29].
To study the effect of PSA-cleaved protein fragments, 0.08 µM nidogen-1 or 0.4 µM galectin-3 (10 µg/ml each) were first incubated with 1 µM PSA for 24 h at 37°C in PBS (Lonza). Then PSA activity was blocked by one-hour incubation at room temperature with 2 µM monoclonal antibody 5C7 [38]. The mixture containing nidogen-1 or galectin-3 fragments with PSA blocked by antibody or the same amount of intact nidogen-1 or galectin-3 were added together with the cells onto gelled Matrigel and the cells were allowed to form tubular networks for 20 h. Control wells contained either PBS or 1 µM PSA. After overnight incubation, cell culture medium was collected from PBS and PSA control wells for SDS-PAGE and Western blotting. Images of tubular networks (100×magnification) were taken using an Axiovert 200 inverted light microscope connected to an AxioCam digital camera and visualized by AxioVision software (all from Zeiss, Göttingen, Germany).

Assay [8] has as its system plasminogen. In words: Plasminogen cleavage control with MMP-3. The format is biochemical, human. Particulars: 1 µM MMP-3 or PSA, 1 µM plasminogen, 37°C, 22 h, TBS. The method, then: as §5, §6

Positions of bridges follow the written chain, without caps; N, C: chain ends. Residues, ends and D or L forms follow the SMILES beside them. No end group written: not given here.

T1 sequence (P07288 25-261): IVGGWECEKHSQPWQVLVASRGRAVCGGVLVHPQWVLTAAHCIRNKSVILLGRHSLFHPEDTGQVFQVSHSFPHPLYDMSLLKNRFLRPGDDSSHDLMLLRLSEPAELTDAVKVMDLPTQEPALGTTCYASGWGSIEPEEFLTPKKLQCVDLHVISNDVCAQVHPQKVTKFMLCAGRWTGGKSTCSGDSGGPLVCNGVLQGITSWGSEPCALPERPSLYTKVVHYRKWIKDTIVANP

With “4-morpholinecarbonyl-HSSKLQ-AMC [Fluorogenic substrate, fluorogenic PSA substrate, AMC = 7-amido-4-methylcoumarin]”, the “kcat/Km compared to literature” value in assay [1] (compared to that reported by Denmeade et al. [36]) is given as “about five-fold higher”. Moreover, the turnover number (kcat) in assay [1] (kcat = Vmax/[PSA], substrate 0.125–2 mM, 175 nM PSA, 0.1% BSA-TBS, 5% DMSO, room temperature, mean ± SD of two experiments) worked out at 0.19 ± 0.09 s⁻¹. In addition, the Km in assay [1] (substrate 0.125–2 mM, 175 nM PSA, 0.1% BSA-TBS, 5% DMSO, 355/460 nm, room temperature, 10 min to 4 h, mean ± SD of two experiments) turned out to be 1580 ± 40 µM. For the same compound, the kcat/Km in assay [1] (substrate 0.125–2 mM, 175 nM PSA, 0.1% BSA-TBS, 5% DMSO, room temperature, mean ± SD of two experiments) worked out at 122.0±59.4 s^−1M^−1.

For the compound `CC(C)C[C@@H]1NC(=O)[C@H](Cc2ccc(O)cc2)NC(=O)[C@H](CC(=O)O)NC(=O)[C@H](Cc2ccc(O)cc2)NC(=O)[C@H](CC(N)=O)NC(=O)[C@H](Cc2c[nH]cn2)NC(=O)[C@H](C)NC(=O)[C@H](Cc2ccccc2)NC(=O)[C@H](C(C)C)NC(=O)[C@@H](N)CSSC[C@@H](C(N)=O)NC(=O)[C@H](C(C)C)NC1=O` [B2-NH2] (H-CVFAHNYDYLVC-NH2; disulfide 1-12), in assay [2], the Emax is 400 ± 14% and the EC50 was determined as 5.13 ± 1.43 µM. Further, in assay [3], the Emax was determined as 391 ± 11% and the EC50 amounted to 4.78 ± 1.55 µM.

In the case of `CC[C@H](C)[C@@H]1NC(=O)[C@@H]2CSSC[C@H](NC(=O)[C@H](Cc3c[nH]cn3)NC(=O)[C@H](Cc3c[nH]cn3)NC(=O)[C@H](CCC(=O)O)NC1=O)C(=O)N[C@@H](Cc1c[nH]c3ccccc13)C(=O)N[C@@H]([C@@H](C)O)C(=O)N[C@H](C(=O)O)CSSC[C@H](N)C(=O)N[C@@H](C(C)C)C(=O)N[C@@H](C)C(=O)N[C@@H](Cc1ccc(O)cc1)C(=O)N2` [C4] (H-CVAYCIEHHCWTC-OH; disulfide 1-13, 5-10), in assay [2], the Emax stood at 785 ± 7% and the EC50 came out at 5.62 ± 2.17 µM. In addition, in assay [3], the Emax came to 610 ± 8% and the EC50 came out at 3.72 ± 0.5 µM.

As to “CVFAHNADALVC (disulfide 1-12 (inferred)) [B2-NH2-control]”, the “Stimulation of PSA activity (summary in words)” value in assay [2] (towards chromogenic and fluorogenic peptide substrates (Figure 1, Table 2), B2 and B2-NH2-control: Figure 1A (chromogenic)) was “did not stimulate PSA activity at all”. In addition, the “binding to PSA” value in assay [4] was “All peptides, except the inactive B2-NH2-control peptide, bound to PSA”.

On to “IGFBP-3: recombinant human insulin-like growth factor-binding protein-3”, for which the “time for degradation of 50% of the protein” value in assay [5] is 22 h.

As for “PSA: major form of active PSA (isoform PSA-B) purified from pooled human seminal fluid”, the “decrease of the content of intact IGFBP-3” value in assay [6] was 50%. In assay [7] (1 µM PSA, 20 h, HUVECs on Matrigel), the tube formation entry is on record as “reduced tube formation”. The “effect of PSA pre-incubation of gelled Matrigel on tube formation” value in assay [7] (overnight pre-incubation of Matrigel with PSA, then PSA inhibited with antibody, Mattsson et al. unpublished data) is reported as “did not inhibit endothelial cell tube formation”. Further, the cleavage of plasminogen result in assay [8] is “but not PSA, cleaved 1 µM plasminogen”.

Turning to fibronectin, the “time for degradation of 50% of the protein” value in assay [5] is recorded as 17 h.

These data come from publication PMC4169579, “Proteolytic Activity of Prostate-Specific Antigen (PSA) towards Protein Substrates and Effect of Peptides Stimulating PSA Activity” (PLoS ONE, 2014).
